From patent CN117567270A, “一种醇胺-壬二酸超分子离子盐及其制备和应用” (Jiangnan University, priority 2023, dated 2024)

Legend:
[1] = test system: Escherichia coli [大肠埃希氏菌]; assay: Antibacterial challenge test (single inoculation, 28 d), Escherichia coli; type: cell-based; conditions: for increase of bacterial count: 14~28 d; for sterilising effect (compared with control group): 7 d, control group: azelaic acid neutralised to pH 7.0
[2] = test system: Pseudomonas aeruginosa [铜绿假单胞菌]; assay: Antibacterial challenge test (single inoculation, 28 d), Pseudomonas aeruginosa; type: cell-based; conditions: for increase of bacterial count: 14~28 d; for sterilising effect (compared with control group): 7 d, control group: azelaic acid neutralised to pH 7.0
[3] = test system: Staphylococcus aureus [金黄色葡萄球菌]; assay: Antibacterial challenge test (single inoculation, 28 d), Staphylococcus aureus; type: cell-based; conditions: 14~28 d
[4] = test system: Escherichia coli, Pseudomonas aeruginosa and Staphylococcus aureus [大肠埃希氏菌、铜绿假单胞菌和金黄色葡萄球菌]; assay: Antibacterial challenge test, overall result; type: cell-based; conditions: for antibacterial challenge test passed: criterion: log decline at 14 d not less than 2.0 and no rise 14~28 d
[5] = test system: human skin stratum corneum [人体皮肤角质层]; assay: Moisturising performance test (skin water content by capacitance method); type: in vivo; conditions: toner with azelaic acid mass fraction 0.2%; for water content of human skin: 1 h after application; for moisturising ability (compared with control group): long time; for water loss of skin (compared with control group): longer time; for water replenishing ability (compared with control group): short time
[6] = background statement; cited from earlier work
[7] = Storage stability of the salt and its water dilutions; type: physicochemical; conditions: 3 months, undiluted and diluted 1, 5, 10, 20, 50 times with water
[8] = High/low temperature cycling of the salt and its water dilutions; type: physicochemical; conditions: 15 cycles -5~40℃; undiluted and diluted 1, 5, 10, 20, 50 times with water

SMILES | increase of bacterial count [1] | sterilising effect (compared with control group) [1] | increase of bacterial count [2] | sterilising effect (compared with control group) [2] | increase of bacterial count [3] | antibacterial challenge test passed [4] | short-term antibacterial effect compared with azelaic acid [4] | water content of human skin [5] | moisturising ability (compared with control group) [5] | water loss of skin (compared with control group) [5] | water replenishing ability (compared with control group) [5] | solubility in water [6] | precipitation of insolubles and colour change ([7]; 45℃ oven) | precipitation of insolubles and colour change ([7]; room temperature, natural light) | precipitation of insolubles and colour change [8]
CC(C)(N)CO.O=C(O)CCCCCCCC(=O)O [实施例3, 氨甲基丙醇-壬二酸超分子离子盐] | 不增加 | 更加优异 | 不增加 | 更加优异 | 不增加 | 通过抗菌挑战测试 | 优于壬二酸 | 明显上升 | 更加优异 | 较为缓慢 | 更加优异 |  |  |  | 
O=C(O)CCCCCCCC(=O)O [壬二酸, reference compound] | 不增加 |  | 不增加 |  | 不增加 | 通过抗菌挑战测试 |  | 明显上升 |  |  |  | 很低 |  |  | 
O=C(O)CCCCCCCC(=O)O.OCCN(CCO)CCO.OCCN(CCO)CCO [实施例1, 三乙醇胺-壬二酸超分子离子盐] | 不增加 | 更加优异 | 不增加 | 更加优异 | 不增加 |  | 优于壬二酸 | 明显上升 | 更加优异 | 较为缓慢 | 更加优异 |  |  |  | 
NCC(O)CO.NCC(O)CO.O=C(O)CCCCCCCC(=O)O [实施例2, 氨基丙二醇-壬二酸超分子离子盐] | 不增加 | 更加优异 | 不增加 | 更加优异 | 不增加 | 通过抗菌挑战测试 | 优于壬二酸 | 明显上升 | 更加优异 | 较为缓慢 | 更加优异 |  | 无不溶物析出且无颜色变化 | 无不溶物析出且无颜色变化 | 无不溶物析出且无颜色变化
